Results from patent US9221875B2, “Amphiphilic peptides for treatment of keratitis” (Agency for Science, Technology and Research, priority 2013, dated 2015).
In brackets after ≈: the same amount, converted by molar mass. Where two headings read alike, the source gives them in different places. Square brackets hold non-standard residues; d marks the D form. Peptide text beside a SMILES is read from it.

What was measured:
[1] = tested on: E. coli; settings: 18 h
[2] = in vitro; assay type: cell-based; settings: human
Procedure: (§1) HeLa, HDF and NR8383 cells were respectively seeded at a densities of 1×10^4, 1×10^4 and 4×10^4 cells per well of a 96-well plate. Following overnight incubation, the cells were treated with 3.9 to 500 mg L^−1 of (IRIK)3-NH2 (SEQ ID NO: 21) and (VRVK)3-NH2 (SEQ ID NO: 20) for 24 h. For the adherent HeLa and HDF cell lines, the incubation media in each well were replaced with 100 μL of growth media and 10 μL of MTT solution (5 mg·ml^−1 in PBS). The cells were further incubated for 4 h at 37° C. according to the manufacturer's directions. Resultant formazan crystals formed in each well were solubilized using 150 μL of DMSO upon removal of growth media. A 100 μL aliquot from each well was then transferred to a new 96-well plate for determination of absorbance using a microplate spectrophotometer at wavelengths of 550 nm and 690 nm. Relative cell viability was expressed as [(A550−A690)sample/(A550−A690)control]×100%.

[3] = tested on: LPS-stimulated NO production in NR8383 rat macrophage cell line; experiment: Endotoxin neutralization assay (Griess nitrite); assay type: cell-based; settings: 125 mg L^−1 peptide, 100 ng mL^−1 LPS, 18 h
Procedure: Untreated cells and cells that were stimulated with LPS alone served as the […] controls, respectively. The amount of NO produced was estimated by quantifying the concentration of the stable NO metabolite nitrite in the isolated supernatant fractions using the Griess reagent (1% sulphanilamide, 0.1% N-1-napthylethylenediamine dihydrochloride, 5% phosphoric acid) according to the manufacturer's protocol. The absorbance was measured at 540 nm and nitrite concentrations were determined using a standard reference curve prepared from known concentrations of NaNO2 solutions.

[4] = in vitro; assay type: cell-based; settings: rat, NR8383 macrophage cells
Procedure: as §1
For the semi-adherent NR8383 cells, 20 μL of […]-BLUE® reagent was added into each well after treatment and the plate was incubated for a further 4 h. The fluorescence intensity readings of the wells were determined at excitation wavelength of 560 nm and emission wavelength of 590 nm using a microplate reader. […]

[5] = tested on: C. albicans; settings: 42 h
[6] = tested on: S. aureus; settings: 18 h
[7] = tested on: S. epidermidis; settings: 18 h
[8] = tested on: P. aeruginosa; settings: 18 h
[9] = tested on: 5 microorganisms tested (S. epidermidis, S. aureus, E. coli, P. aeruginosa, C. albicans); experiment: Mean MIC over the panel and selectivity index (Example 1); assay type: cell-based
Procedure: Red blood cells suspension incubated with PBS was used as negative control.

[10] = tested on: S. epidermidis; settings: 18 h; remark: listed apart in the source
[11] = tested on: E. coli; assay type: cell-based, Escherichia coli; settings: end of the experiment (up to 20 passages)
[12] = tested on: Methicillin-resistant S. aureus; settings: clinical isolate
[13] = tested on: P. aeruginosa; settings: 18 h; remark: listed apart in the source
[14] = tested on: five microorganisms tested (S. epidermidis, S. aureus, E. coli, P. aeruginosa, C. albicans); assay type: cell-based; settings: 18 h
Procedure: After 18 h treatment of microorganisms with various concentrations of peptide (0.5×MIC, MIC and 2×MIC), the respective samples were subjected to a series of ten-fold dilutions and plated onto LB agar plates. The plates were then incubated overnight and counted for colony-forming units. A sample containing microbes treated with 10% (by volume) water was used as a control. Results are expressed as Log(CFU/mL) and as % Kill=[(cell count of control−survivor count of peptide-treated microbes)/cell count of control]×100.

[15] = tested on: 5 microorganisms tested (S. epidermidis, S. aureus, E. coli, P. aeruginosa, C. albicans); experiment: Mean MIC over the panel and selectivity index (Example 2)
[16] = tested on: E. coli; settings: 18 h; remark: listed apart in the source
[17] = tested on: Vancomycin-resistant Enterococci; settings: clinical isolate
[18] = tested on: P. aeruginosa; experiment: MBC against clinical isolates; assay type: cell-based; settings: clinical isolate
[19] = tested on: C. albicans
[20] = in vitro; assay type: cell-based; settings: mouse, RAW264.7 macrophage cells
Procedure: RAW264.7 and WI-38 cells were respectively seeded at a density of 1.5×10^4 and 1×10^4 per well of a 96-well plate. Following overnight incubation, the cells were treated with 1.0 to 125 mg L^−1 of IK8-all D for 48 h. Subsequently, the incubation media in each well were replaced with 100 μL of growth media and 10 μL of MTT solution (5 mg·ml^−1 in PBS) and the cells were incubated for 4 h at 37° C. according to the manufacturer's directions. Resultant formazan crystals formed in each well were solubilized using 150 μL of DMSO upon removal of growth media. A 100 μL aliquot from each well was then transferred to a new 96-well plate for determination of absorbance using a microplate spectrophotometer at wavelengths of 550 nm and 690 nm. Relative cell viability was expressed as [(A550−A690)sample/(A550−A690)control]×100%.

[21] = tested on: S. aureus and P. aeruginosa; experiment: FE-SEM analysis of treated bacteria (Example 2); assay type: cell-based, Staphylococcus aureus, Pseudomonas aeruginosa; settings: 125 mg L^−1, 2 h
Procedure: S. aureus and P. aeruginosa suspensions at ˜3×10^8 CFU mL^−1 (100 μL) were separately incubated with an equal volume of broth containing final concentrations of 10% (by volume) of HPLC water or 125 mg L^−1 of IK8-all D in a 96 well-plate for 2 h. Eight replicates of each condition was pooled into a microfuge tube, pelleted down at 4000 rpm for 5 min, and rinsed twice with PBS. The samples were then fixed with 4% formaldehyde at room temperature for 20 min, followed by rinsing with deionized water. Dehydration of the cells was performed using a series of graded ethanol solutions (35, 50, 75, 90, 95 and 100%). The samples were mounted on a copper tape, allowed to air-dry and sputter coated with platinum for imaging using a FE-SEM setup (JEOL JSM-7400F, Japan).

[22] = tested on: trypsin and proteinase K; assay type: in vitro ADME
Procedure: One of the major factors limiting the clinical utility of AMPs lies in their instability to rapid degradation by proteases which are present abundantly in biological fluids and/or secreted by microorganisms. In order to evaluate the proteolytic stability of the designed β-sheet forming peptides, the D- and L-isoforms of the n=2 peptide sequence (IK8-all D or IK8-all L, respectively) were treated with the broad spectrum serine proteases, trypsin and proteinase K, for 6 h and evaluated their antimicrobial activities against S. aureus, E. coli and P. aeruginosa. […] The structural integrity of synthetic peptides following treatment with both proteases was also evaluated using MALDI-TOF mass spectroscopy. […] The cleavage sites of both enzymes for the IK8-all L peptide are illustrated in FIG. 19a with the mass spectra peaks assigned to the major fragments.

[23] = tested on: A. baumanni
[24] = tested on: S. aureus; settings: 18 h; remark: listed apart in the source
[25] = tested on: intracellular S. aureus in RAW264.7 mouse macrophages; assay type: cell-based, Staphylococcus aureus; settings: intracellular in RAW264.7 mouse macrophages, 8 h
Procedure: RAW264.7 cells were seeded at a density of 4×10^5 per well of a 12-well plate. Following an overnight incubation, the cells were infected for 1 h with 13.3 μL of processed bacteria (3.0×10^8 CFU mL^−1) to achieve a 10:1 multiplicity of infection. The cells were then rinsed twice with 1×PBS and incubated with 1 mL of fresh media containing 50 μg mL^−1 gentamicin for 45 min to eliminate extracellular bacteria. The media in each well were removed and the infected cells were incubated with fresh media containing 10% (by volume) water or various concentrations of IK8-all D (2, 3.9, 7.8, 15.6 and 31.3 mg L^−1) for up to 4 and 8 h. At the respective time points, the infected cells were trypsinized, rinsed twice with PBS and lyzed with 800 μL of sterile water with incubation at room temperature for 10 min, followed by 5 min sonication. The intracellular bacteria count was determined by plating serially diluted cultures onto LB agar and enumerated after 24 h.

[26] = tested on: C. neoformans; experiment: MBC against clinical isolates; assay type: cell-based; settings: clinical isolate
[27] = tested on: clinically isolated Mycobacterium tuberculosis
[28] = tested on: clinically isolated drug resistant microorganisms; experiment: MBC comparison over clinical isolates; assay type: cell-based; settings: antibacterial activities
[29] = tested on: S. aureus; assay type: cell-based, Staphylococcus aureus; settings: passage 20
[30] = tested on: rabbit red blood cells; assay type: cell-based; settings: red cells of rabbit, 1 h

SMILES: CC[C@H](C)[C@H](N)C(=O)N[C@@H](CCCNC(=N)N)C(=O)N[C@H](C(=O)N[C@@H](CCCCN)C(=O)N[C@H](C(=O)N[C@@H](CCCNC(=N)N)C(=O)N[C@H](C(=O)N[C@@H](CCCCN)C(=O)N[C@H](C(=O)N[C@@H](CCCNC(=N)N)C(=O)N[C@H](C(=O)N[C@@H](CCCCN)C(N)=O)[C@@H](C)CC)[C@@H](C)CC)[C@@H](C)CC)[C@@H](C)CC)[C@@H](C)CC [(IRIK)3-NH2] (H-IRIKIRIKIRIK-NH2; N-terminus assumed)
- MIC E. coli [1]: 125 µg/mL (≈ 80.7 µM)
- viability at 24 h, 125 µg/mL ([2]; HDF dermal fibroblast cells): > 80%
- nitrite concentration, LPS-stimulated NO production [3]: reduced to the control level
- viability at 24 h, 125 µg/mL [4]: > 80%
- MIC C. albicans [5]: 125 µg/mL (≈ 80.7 µM)
- MIC S. aureus [6]: 62.5 µg/mL (≈ 40.3 µM)
- MIC S. epidermidis [7]: 1.0 µg/mL (≈ 0.646 µM)
- MIC P. aeruginosa [8]: 500 µg/mL (≈ 323 µM)
- GM, geometric mean of MIC values for the 5 microorganisms tested [9]: 162.7 µg/mL

SMILES: CC(C)[C@H](N)C(=O)N[C@@H](CCCNC(=N)N)C(=O)N[C@H](C(=O)N[C@@H](CCCCN)C(=O)N[C@H](C(=O)N[C@@H](CCCNC(=N)N)C(=O)N[C@H](C(=O)N[C@@H](CCCCN)C(=O)N[C@H](C(=O)N[C@@H](CCCNC(=N)N)C(=O)N[C@H](C(=O)N[C@@H](CCCCN)C(N)=O)C(C)C)C(C)C)C(C)C)C(C)C)C(C)C [(VRVK)3-NH2] (H-VRVKVRVKVRVK-NH2; N-terminus assumed)
- MIC E. coli [1]: 15.6 µg/mL (≈ 10.6 µM)
- viability at 24 h, 250 mg/L [2]: 30%
- viability at 24 h, 250 µg/mL ([2]; HDF dermal fibroblast cells): > 53%
- viability at 24 h, 250 µg/mL [4]: > 53%
- MIC C. albicans [5]: 31.3 µg/mL (≈ 21.4 µM)
- MIC S. aureus [6]: 62.5 µg/mL (≈ 42.7 µM)
- MIC S. epidermidis [7]: 1.0 µg/mL (≈ 0.683 µM)
- MIC P. aeruginosa [8]: 62.5 µg/mL (≈ 42.7 µM)
- GM, geometric mean of MIC values for the 5 microorganisms tested [9]: 34.6 µg/mL

SMILES: CC[C@@H](C)[C@@H](N)C(=O)N[C@H](CCCNC(=N)N)C(=O)N[C@@H](C(=O)N[C@H](CCCCN)C(=O)N[C@@H](C(=O)N[C@H](CCCNC(=N)N)C(=O)N[C@@H](C(=O)N[C@H](CCCCN)C(N)=O)[C@H](C)CC)[C@H](C)CC)[C@H](C)CC [IK8-all D, irikirik-NH2] (H-[dI][dR][dI][dK][dI][dR][dI][dK]-NH2; N-terminus assumed)
- MIC S. epidermidis [10]: 2.0 µg/mL (≈ 1.93 µM)
- MICn/MIC0 [11]: 1
- MBC Methicillin-resistant S. aureus [12]: 3.9 µg/mL (≈ 3.76 µM)
- MIC P aeruginosa [13]: 7.8 µg/mL (≈ 7.51 µM)
- killing efficiencies [14]: > 99.9%
- log reductions in colony counts [14]; 2: more than 3 log
- GM, geometric mean of MIC values for the 5 microorganisms tested [15]: 4.3 µg/mL
- fold reduction in MIC values compared with the L-enantiomer ([15]; against the various bacteria): 2-16 fold
- MIC E. coli [16]: 3.9 µg/mL (≈ 3.76 µM)
- MBC Vancomycin-resistant Enterococci [17]: 3.9 µg/mL (≈ 3.76 µM)
- MBC P. aeruginosa [18]: 15.6 µg/mL (≈ 15 µM)
- MIC C. albicans [19]: 3.9 µg/mL (≈ 3.76 µM)
- viability at 48 h [20]: > 80%
- surface morphology under FE-SEM [21]: significant membrane damage and corrugation
- antimicrobial activity after protease treatment [22]: retained its antibacterial activities
- structural integrity after protease treatment, MALDI-TOF MS [22]: remained intact
- MBC A. baumanni [23]: 31.3 µg/mL (≈ 30.1 µM)
- MIC S. aureus [24]: 3.9 µg/mL (≈ 3.76 µM)
- log reductions in intracellular S. aureus colony counts compared to the control [25]: 1.2-1.5 log
- MBC C. neoformans [26]: 7.8 µg/mL (≈ 7.51 µM)
- MIC M. tuberculosis ([27]; strain number 1140): 15.6 µg/mL (≈ 15 µM)
- MIC M. tuberculosis ([27]; strain number 1146): 15.6 µg/mL (≈ 15 µM)
- folds reduction in MBCs compared with the L-enantiomer [28]: 4-8 folds
- MICn/MIC0, fold increase in MIC [29]: 1
- HC10, haemolysis concentration 10%: lowest peptide concentration that induces ≧10% haemolysis [30]: 1750 mg/L
